From patent EP0734445B1, “CHIMERIC GENES AND METHODS FOR INCREASING THE LYSINE CONTENT OF THE SEEDS OF CORN, SOYBEAN AND RAPESEED PLANTS” (priority 1993, dated 1995)

Legend:
[1] = test system: Gif106M1 transformed with pBT436; assay: Growth inhibition in M9 media; type: cell-based, E. coli; conditions: M9 media with arginine, isoleucine, ampicillin; reversed by threonine plus methionine
Experimental: Addition of lysine (or diaminopimelate which is readily converted to lysine in vivo) at a concentration of approximately 0.2 mM to the growth medium inhibits the growth of Gif106M1 transformed with pBT436. M9 media [see Sambrook et al. (1989) Molecular Cloning: a Laboratory Manual, Cold Spring Harbor Laboratory Press] supplemented with the arginine and isoleucine, required for Gif106M1 growth, and ampicillin, to maintain selection for the pBT436 plasmid, was used. This inhibition is reversed by addition of threonine plus methionine to the growth media. […] This property of pBT436-transformed Gif106M1 was used to select for mutations in lysC that encoded lysine-insensitive AKIII.

[2] = target: T1, Corynebacterium DHDPS (Corynebacterium glutamicum, UniProt P19808, S2A); assay: DHDPS enzyme activity assay; type: biochemical; conditions: lysine at 70 mM in the enzyme reaction mix
T1 construct: An 870 bp Nco I-EcoR I fragment from pFS766 containing the entire cordapA coding region; made in house; host or cells: E. coli BL21(DE3)/pFS766, supernatant of uninduced extract
T1 sequence (P19808 whole entry S2A, the tested form may be a part): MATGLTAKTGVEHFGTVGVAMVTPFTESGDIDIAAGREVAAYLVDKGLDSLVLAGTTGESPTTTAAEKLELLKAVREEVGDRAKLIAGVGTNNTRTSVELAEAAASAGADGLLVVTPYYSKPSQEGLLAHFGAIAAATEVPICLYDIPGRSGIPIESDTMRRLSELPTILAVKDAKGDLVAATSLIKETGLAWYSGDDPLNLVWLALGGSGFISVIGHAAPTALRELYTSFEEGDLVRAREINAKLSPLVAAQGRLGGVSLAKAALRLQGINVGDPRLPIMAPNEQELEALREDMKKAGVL
Experimental: (§1) DHDPS enzyme activity was assayed as follows: Assay mix (for 10 X 1.0 mL assay tubes or 90 X 0.25 mL for microtiter dish); made fresh, just before use:
(§2) Color allowed to develop for 30-60 min. Precipitate spun down in eppendorf centrifuge. OD540 vs 0 min read as blank. For MicroAssay, aliquot 0.2 mL into microtiter well and read at OD530.
(§3) The specific activity of E. coli DHDPS in the supernatant fraction of induced extracts was about 50 OD540 units per minute per milligram protein in a 1.0 mL assay. E. coli DHDPS was sensitive to the presence of L-lysine in the assay. Fifty percent inhibition was found at a concentration of about 0.5 mM. For Corynebacterium DHDPS, the activity was measured in the supernatant fraction of uninduced extracts, rather than induced extracts. Enzyme activity was about 4 OD530 units per minute per milligram protein in a 0.25 mL assay.

[3] = target: T2, E. coli DHDPS (Escherichia coli, UniProt P0A6L2, F2V); assay: DHDPS enzyme activity assay; type: biochemical
T2 construct: An 880 bp Nco I-Kpn I fragment from pBT443 containing the entire ecodapA coding region; made in house; host or cells: E. coli BL21(DE3)/pBT442, supernatant of IPTG-induced extract
T2 sequence (P0A6L2 whole entry F2V, the tested form may be a part): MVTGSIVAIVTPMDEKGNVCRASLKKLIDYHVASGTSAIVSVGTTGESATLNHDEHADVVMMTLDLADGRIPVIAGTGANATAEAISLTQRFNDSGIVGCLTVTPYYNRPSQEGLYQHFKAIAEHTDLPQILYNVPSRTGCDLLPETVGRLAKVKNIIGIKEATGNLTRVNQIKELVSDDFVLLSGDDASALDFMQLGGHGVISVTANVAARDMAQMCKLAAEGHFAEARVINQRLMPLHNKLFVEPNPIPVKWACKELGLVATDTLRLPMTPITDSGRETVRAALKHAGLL
Experimental: as §1, §2, §3

[4] = target: T3, wild type AKIII (Escherichia coli, UniProt P08660); assay: Inhibition of AKIII by lysine; type: biochemical, E. coli
T3 construct: made in house; host or cells: E. coli (pBT436 in AK-deficient strain Gif106M1)
T3 sequence (P08660 2-449): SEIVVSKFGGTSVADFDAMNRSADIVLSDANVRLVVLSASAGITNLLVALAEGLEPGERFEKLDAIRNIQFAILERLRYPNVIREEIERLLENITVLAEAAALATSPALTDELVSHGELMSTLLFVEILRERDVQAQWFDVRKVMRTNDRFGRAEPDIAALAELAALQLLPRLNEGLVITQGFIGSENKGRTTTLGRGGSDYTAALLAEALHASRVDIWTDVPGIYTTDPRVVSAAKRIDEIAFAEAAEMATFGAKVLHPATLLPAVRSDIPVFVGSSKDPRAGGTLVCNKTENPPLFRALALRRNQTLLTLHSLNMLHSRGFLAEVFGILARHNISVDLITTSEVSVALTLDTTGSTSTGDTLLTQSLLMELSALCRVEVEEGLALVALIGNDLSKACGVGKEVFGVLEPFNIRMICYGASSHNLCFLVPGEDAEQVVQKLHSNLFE
Experimental: (§4) Single colonies of Gif106M1 transformed with pBT436 were picked and resuspended in 200 µL of a mixture of 100 µL 1% lysine plus 100 µL of M9 media. The entire cell suspension containing 10^7-10^8 cells was spread on a petri dish containing M9 media supplemented with the arginine, isoleucine, and ampicillin. Sixteen petri dishes were thus prepared. From 1 to 20 colonies appeared on 11 of the 16 petri dishes. One or two (if available) colonies were picked and retested for lysine resistance and from this nine lysine-resistant clones were obtained. Plasmid DNA was prepared from eight of these and re-transformed into Gif106M1 to determine whether the lysine resistance determinant was plasmid-borne. Six of the eight plasmid DNAs yielded lysine-resistant colonies. Three of these six carried lysC genes encoding AKIII that was uninhibited by 15mM lysine, whereas wild type AKIII is 50% inhibited by 0.3-0.4 mM lysine and >90% inhibited by 1 mM lysine (see Example 2 for details).

[5] = target: T4, AKIII encoded by mutant lysC genes (Escherichia coli, UniProt P08660, T352I); assay: Inhibition of AKIII by lysine (mutant lysC genes); type: biochemical, E. coli; conditions: 15mM lysine; three of six mutant lysC plasmids
T4 construct: made in house; host or cells: E. coli (mutant derivatives of pBT436 selected in Gif106M1; the extract used is not described)
T4 sequence (P08660 whole entry T352I): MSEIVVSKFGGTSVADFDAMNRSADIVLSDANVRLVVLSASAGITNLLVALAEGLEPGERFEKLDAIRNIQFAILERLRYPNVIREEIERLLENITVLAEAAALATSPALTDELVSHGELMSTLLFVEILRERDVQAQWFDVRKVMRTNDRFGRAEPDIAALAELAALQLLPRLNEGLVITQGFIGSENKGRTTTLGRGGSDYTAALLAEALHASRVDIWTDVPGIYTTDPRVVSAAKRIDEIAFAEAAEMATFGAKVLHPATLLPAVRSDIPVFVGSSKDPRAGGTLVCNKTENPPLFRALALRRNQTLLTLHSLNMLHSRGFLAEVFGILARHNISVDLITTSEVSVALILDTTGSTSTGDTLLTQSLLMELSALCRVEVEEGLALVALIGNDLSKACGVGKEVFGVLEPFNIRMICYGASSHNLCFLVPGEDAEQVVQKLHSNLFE
Experimental: as §4
The sequences of the three mutant lysC genes that encoded lysine-insensitive AK each differed from the wild type sequence by a single nucleotide, resulting in a single amino acid substitution in the protein. […] Thus, either of these single amino acid substitutions is sufficient to render the AKIII enzyme insensitive to lysine inhibition.

[6] = test system: DE126; assay: Growth inhibition in synthetic medium; type: cell-based, E. coli
Description: To select clones that carried the LKR gene a specially designed E. coli host, DE126 was constructed. Construction of DE126 occurred in several stages. • (1) A generalized transducing stock of coliphage Plvir was produced by infection of a culture of TST1 [F^-, araD139, delta (argF-lac) 205, flb5301, ptsF25, relA1, rpsL150, malE52::Tn10, deoC1, λ^-] (E. coli Genetic Stock Center #6137) using a standard method (for Methods see J. Miller, Experiments in Molecular Genetics). • (2) This phage stock was used as a donor in a transductional cross (for Method see J. Miller, Experiments in Molecular Genetics) with strain GIF106M1 [F^-, arg-, ilvA296, lysC1001, thrA1101, metL1000, λ^-, rpsL9, malT1, xyl-7, mtl-2, thi1(?), supE44(?)] (E. coli Genetic Stock Center #5074) as the recipient. Recombinants were selected on rich medium [L supplemented with DAP] containing the antibiotic tetracycline. […] The genes malE and lysC are separated by less than 0.5 minutes, well within cotransduction distance. • (3) 200 tetracycline-resistant transductants were thoroughly phenotyped; appropriate fermentation and nutritional traits were scored. […] The phenotype of one clone was determined to be Ilv^+, Arg^-, TetR, Lysine-sensitive, male specific phage (MS2)-sensitive, consistent with the simple transfer of F'16 from AB1528 to DE125. […]

SMILES | concentration in the growth medium that inhibits growth [1] | inhibition by L-lysine [2] | inhibition by L-lysine ([2]; listed as lysine) | IC50 [3] [µM] | fold less sensitive to inhibition by lysine than a typical plant enzyme, e.g., wheat DHDPS [3] | inhibited ([4]; 1 mM lysine) [%] | IC50 ([4]; read-out: 50% inhibited, lysine concentration) [µM] | inhibition by lysine [5] | concentration of L-lysine that inhibits growth [6] [µg/mL]
NC(CCCC(N)C(=O)O)C(=O)O (stereo not shown) [diaminopimelate] | approximately 0.2 mM |  |  |  |  |  |  |  | 
NCCCC[C@H](N)C(=O)O [L-lysine] | approximately 0.2 mM | not inhibited at all | unaffected | ~500 | at least 20 fold | > 90 | 300 to 400 | uninhibited | 20
